13 molecules from patent publication US20040116523A1, “Use of c4-c10 acids for preventing gram-negative bacterial infections” (priority 2000, published 2004) can be followed below.

For the first assay, the system named is iagA′-lacZ fusion (S. typhi strain Ty267). In words: β-galactosidase activity of the iagA′-lacZ fusion in favourable LB medium. The conditions noted are these: 5 mM in favourable LB medium, 6 hours at 37° C.; control 12134 ± 1811. The format is cell-based. The procedure: (§1) The favourable LB medium (high osmolarity and concentration of Ca^2+ions) was defined as being the standard LB medium modified so as to have a final NaCl concentration of 300 mM and a final Ca concentration of 5 mM.
Each of the strains described above was cultured at 37° C. on agar or in TCS broth. The P-galactosidase activity was determined using 4-methyl-umbelliferyl-p-D-galactopyranoside sold by the company Sigma, according to the technique of Klarsfeld et al. (Mol. Mibrobiol., 1994, 13, 585-597). The results, expressed in P-galactosidase units (fluorescence per hour and per OD600), represent the mean of the values obtained in at least three independent experiments. The standard deviations were less than 10% of the values presented. […]
The β-galactosidase activity of the iagA′-lacZ fusion was measured after incubation for 6 hours at 37° C. with shaking (200 rpm).
The S. typhi Ty267 strain (iagA′-lacZ fusion) was seeded into favourable LB medium and into favourable LB medium containing the fatty acid to be tested, in the form of its sodium salt, at the final concentration of 5 mM.
As for `O=C([O-])CCCc1ccccc1.[Na+]` [sodium 4-phenylbutyrate], the “β-galactosidase activity of the iagA′-lacZ fusion (Table II)” value is recorded as 198 ± 32 β-galactosidase units.

The same assay, now with this note: LB medium with 300 mM NaCl and 1 mM EGTA (depleted of divalent cations) versus favourable LB medium.
On to `O=C(O)CN(CCOCCOCCN(CC(=O)O)CC(=O)O)CC(=O)O` [EGTA, ethylene glycol bis(β-aminoethyl ether) N,N,N′,N′-tetraacetic acid], for which the “expression of the iagA′-lacZ fusion” value is reported as “repression”.

The assay is the same for the next values; noted with them: fatty acid as sodium salt, 5 mM in favourable LB medium, 6 hours at 37° C.; control 22022 ± 1177.
On to `CCCCCCC(N)C(=O)O` (stereo not shown) [2-Aminocaprylic acid], for which the “β-Galactosidase activity of the iagA′-lacZ fusion (Table VII)” value (shortened to “β-Galactosidase activity … (Table VII)”) is 33149 ± 2520 β-galactosidase units.

With `CCCCCCC(O)C(=O)O` (stereo not shown) [2-Hydroxycaprylic acid], the “β-Galactosidase activity … (Table VII)” value was 225 ± 72 β-galactosidase units.

For `NCCCCCCCC(=O)O` [8-Aminocaprylic acid], the “β-Galactosidase activity … (Table VII)” value is 18077 ± 1263 β-galactosidase units.

As to `O=C(O)CCCCCCCO` [8-Hydroxycaprylic acid], the “β-Galactosidase activity … (Table VII)” value is recorded as 593 ± 49 β-galactosidase units.

Take `CC(=O)O` [Acetic acid]: the “β-Galactosidase activity … (Table VII)” value is on record as 29265 ± 1692 β-galactosidase units.

With `CCCC(=O)O` [Butyric acid], the “β-Galactosidase activity … (Table VII)” value was 21225 ± 1741 β-galactosidase units.

In the case of `CCCCCC(=O)O` [Caproic acid], the “β-Galactosidase activity … (Table VII)” value is given as 347 ± 21 β-galactosidase units.

As to `CCCCCCC(=O)O` [Oenanthic acid], the “β-Galactosidase activity … (Table VII)” value is reported as 525 ± 43 β-galactosidase units.

With `CCCCCCCCC(=O)O` [Pelargonic acid], the “β-Galactosidase activity … (Table VII)” value is given as 383 ± 54 β-galactosidase units.

As to `CCC(=O)O` [Propionic acid], the “β-Galactosidase activity … (Table VII)” value is given as 14650 ± 1333 β-galactosidase units.

Turning to `CCCCC(=O)O` [Valeric acid], the “β-Galactosidase activity … (Table VII)” value is 509 ± 91 β-galactosidase units.

Still in this assay, the particulars now being: sodium salt, 5 mM in favourable LB medium, 6 hours at 37° C.
As for `CCCCCCC(N)C(=O)O` (stereo not shown) [2-Aminocaprylic acid], the “inhibition of the expression of the iagA′-lacZ fusion in S. typhi (in words)” value (from here on “inhibition”) is given as “totally blocks the inhibitory activity”.

As for `CCCCCCC(O)C(=O)O` (stereo not shown) [2-Hydroxycaprylic acid], the “inhibition” value was “does not modify the expression”.

Regarding `NCCCCCCCC(=O)O` [8-Aminocaprylic acid], the “inhibition” value is “totally blocks the inhibitory activity”.

As to `O=C(O)CCCCCCCO` [8-Hydroxycaprylic acid], the “inhibition” value is given as “does not modify the expression”.

Take `CC(=O)O` [Acetic acid]: the “inhibition” value was “do not make it possible to inhibit”.

As for `CCCC(=O)O` [Butyric acid], the “inhibition” value is reported as “do not make it possible to inhibit”.

For the molecule `CCCCCC(=O)O` [Caproic acid], the “inhibition” value is listed as “as strongly as sodium caprylate”.

`CCCCCCC(=O)O` [Oenanthic acid]: the “inhibition” value was “as strongly as sodium caprylate”.

Turning to `CCCCCCCCC(=O)O` [Pelargonic acid], the “inhibition” value is listed as “as strongly as sodium caprylate”.

Take `CCC(=O)O` [Propionic acid]: the “inhibition” value was “do not make it possible to inhibit”.

For `CCCCC(=O)O` [Valeric acid], the “inhibition” value is on record as “as strongly as sodium caprylate”.

Turning to `O=C([O-])CCCc1ccccc1.[Na+]` [sodium 4-phenylbutyrate], the “inhibition” value is listed as “inhibited”.

In the next assay the test system is invF′-lacZ fusion (S. typhi strain Ty272). The assay can be described thus: β-galactosidase activity of the invF′-lacZ fusion in favourable LB medium. The format is cell-based. The note with it: LB medium with 300 mM NaCl and 1 mM EGTA (depleted of divalent cations) versus favourable LB medium. The protocol:
as §1
(§2) Each of the strains described above was cultured at 37° C. on agar or in TCS broth. The P-galactosidase activity was determined using 4-methyl-umbelliferyl-p-D-galactopyranoside sold by the company Sigma, according to the technique of Klarsfeld et al. (Mol. Mibrobiol., 1994, 13, 585-597). The results, expressed in P-galactosidase units (fluorescence per hour and per OD600), represent the mean of the values obtained in at least three independent experiments. The standard deviations were less than 10% of the values presented.
(§3) For this, the S. typhi strains Ty267, Ty272 and Ty277, which carry the iagA′-lacZ, invF′-lacZ and sipB′-lacZ fusions, respectively, (see Table I), were cultured in the favourable LB or unfavourable LB medium.
(§4) The action of these two compounds on the expression of the iagA′-lacZ, invF′-lacZ and sipB′-lacZ fusions was studied by measuring the β-galactosidase activity expressed by these fusions as a function of the time of culturing (samples removed every two hours).
In the case of `O=C(O)CN(CCOCCOCCN(CC(=O)O)CC(=O)O)CC(=O)O` [EGTA, ethylene glycol bis(β-aminoethyl ether) N,N,N′,N′-tetraacetic acid], the “expression of the invF′-lacZ fusion” value was “repression”.

The subject of another assay is sipB′-lacZ fusion (S. typhi strain Ty277). In words: β-galactosidase activity of the sipB′-lacZ fusion in favourable LB medium. The format is cell-based. The note with it: LB medium with 300 mM NaCl and 1 mM EGTA (depleted of divalent cations) versus favourable LB medium. The protocol: as §1, §2, §3, §4
Take `O=C(O)CN(CCOCCOCCN(CC(=O)O)CC(=O)O)CC(=O)O` [EGTA, ethylene glycol bis(β-aminoethyl ether) N,N,N′,N′-tetraacetic acid]: the “expression of the sipB′-lacZ fusion” value is “repression”.

The next assay concerns Salmonellae. In words: Bactericidal or bacteriostatic effect on the Salmonellae at neutral pH. Format: cell-based, Salmonella.
Settings: not given
For the molecule `O=C([O-])CCCc1ccccc1.[Na+]` [sodium 4-phenylbutyrate], the “bactericidal or bacteriostatic effect on the Salmonellae” value is “none of these compounds has any significant bactericidal or bacteriostatic effect”.
